pIC50: −log10 of the molar value.
Key:
Format in all cases: functional, cell-based
MCF7 = assay: Cytotoxicity against human MCF7 cells assessed as cell viability by MTT assay
MDA-MB-231 = assay: Cytotoxicity against human MDA-MB-231 cells assessed as cell viability by MTT assay
HeLa = assay: Cytotoxicity against human HeLa cells assessed as cell viability by MTT assay
A549 = assay: Cytotoxicity against human A549 cells assessed as cell viability by MTT assay

Structure (SMILES): O=C1C[C@H](c2ccccc2)Oc2cc(O)c([C@H](/C=C/C[C@@H](O)CCc3ccccc3)c3ccccc3)c(O)c21
- pIC50 (MCF7): 4.90
- pIC50 (MDA-MB-231): 5.46
- pIC50 (HeLa): 5.80
- pIC50 (A549): 5.25
